Laboratory results as given in ChEMBL document CHEMBL1133316, “Synthesis and antiviral activity of acyclovir-5'-(phenyl methoxy alaninyl) phosphate as a possible membrane-soluble nucleotide prodrug” (Bioorg Med Chem Lett, 2000).

What was measured:
Vero [1] = assay: Compound was tested for inhibition against herpes simplex virus (HSV-2) infected vero cells; assay type: functional, cell-based; conditions: Chlorocebus sabaeus
Vero [2] = assay: Compound was tested for cytotoxic activity uninfected vero cells; assay type: functional; conditions: Chlorocebus sabaeus
MRC5 [3] = assay: Compound was tested for inhibition against Varicella zoster virus(VZV) infected MRC5 cells; assay type: functional, cell-based; conditions: Homo sapiens
MRC5 [4] = assay: Compound was tested for inhibition against human cytomegalovirus (HCMV) in MRC-5 cells; assay type: functional, cell-based
MRC5 [5] = assay: Compound was tested for inhibition against varicella zoster virus(VZV) infected MRC5 cells; conditions: Homo sapiens

| SMILES | EC50 (Vero [1]) | CC50 (Vero [2]) | EC50 (MRC5 [3]) | EC50 (MRC5 [4]) | EC50 (MRC5 [5]) |
| --- | --- | --- | --- | --- | --- |
| COC(=O)C(C)NP(=O)(OCCOCn1cnc2c(O)nc(N)nc21)Oc1ccccc1 (stereo not drawn) | > 100 µM | > 5 µM | 16 µM | 12 µM | – |
| Nc1nc2c(ncn2COCCO)c(=O)[nH]1 [ACYCLOVIR] | 3 µM | > 5 µM | – | 50 µM | 5 µM |
